{"source": "patent US20260124122A1", "about": "“QUATERNARY AMMONIUM SILANE AQUEOUS HYDROGEL FORMULATIONS” (priority 2023, published 2026)", "assay_type_in_all_cases": "physicochemical", "key": {"[1]": {"assay": "Hydrolysis of quaternary ammonium silane, Direct Infusion Mass Spectrometry, ESI+ mode", "description": "In this example, hydrolysis of Compound VII was evaluated in the mass-spectrometry study (Direct Infusion Mass Spectrometry, ESI+ mode).\nIn a first experiment, Compound VII was dissolved in propylene glycol and diluted with acetonitrile to a final concentration of 10 μg/mL in the sample. […] Two minor peaks with m/z of 592 (Compound VII) and m/z of 534 (mono-hydrolyzed species of Compound VII) are present at low abundance. […] Exposure time during the HPLC-mass spec analysis is less than 45 seconds, further confirming the rapid hydrolysis of the quaternary ammonium silane upon exposure to water.\nIn a second experiment, Compound VII was diluted in water to a final concentration of 10 μg/mL in the sample. The mass spectrum of the sample was recorded at a 30-minute time point and is shown FIG. 3. Compound VII was completely hydrolyzed within the 30-minute time frame according to the following reaction scheme:\n0.50% of Compound VII was formulated with 2% propylene glycol, 1% HPMC, 0.1% poloxamer 407, 2% PEG, and 94.40% water."}, "[2]": {"assay": "Dissolution in water and stability of the aqueous solution of the isolated product", "settings": "for dissolution of the product in water: isolated product"}, "[3]": {"assay": "Precipitation on addition to hydrogels containing ionic or non-ionic, carboxylic acid group containing ingredients", "settings": "zinc gluconate, sorbitol, glycerin", "description": "(§1) 160 mls of distilled water was added to a 250 mL screw-top media bottle. 4 g of Xanthan gum was added slowly under vigorous stirring. The mixture was stirred overnight and the Xanthan gum was fully dissolved, with the mixture homogenous and clear. Zinc gluconate (0.2 g), sorbitol (10 g), glycerin (4 g), and Poloxamer 407 (0.4 g) were added to the mixture and stirred until homogenous and clear. […] At this point the process was stopped.\nas §1, with “bottle. 0.2” for “bottle. 4”, “of carbomer copolymer A” for “of Xanthan gum”, “the carbomer copolymer A” for “the Xanthan gum”\nas §1, with “bottle. 0.2” for “bottle. 4”, “of carbomer copolymer B” for “of Xanthan gum”, “the carbomer copolymer B” for “the Xanthan gum”\nas §1, with “bottle. 0.2” for “bottle. 4”, “of carrageenan” for “of Xanthan gum”, “the carrageenan” for “the Xanthan gum”\nas §1, with “bottle. 0.2” for “bottle. 4”, “of carboxymethylcellulose Sodium” for “of Xanthan gum”, “the Carboxymethylcellulose Sodium” for “the Xanthan gum”\nas §1, with “bottle. 0.2” for “bottle. 4”, “of Sodium Alginate” for “of Xanthan gum”, “the Sodium Alginate” for “the Xanthan gum”\nas §1, with “of HPMC having a viscosity 2600-5600 in H2O (20° C.)” for “of Xanthan gum”, “the HPMC” for “the Xanthan gum”, “and sodium hyaluronate” for “and Poloxamer 407”"}}, "data": [{"smiles": "CCCCCCCCCCCCCCCCCC[N+](C)(C)CCC[Si](OCC(C)O)(OCC(C)O)OCC(C)O.CS(=O)(=O)[O-]", "note": "(stereo not shown) [Compound VII, N,N-dimethyl-N-(3-(tris(2-hydroxypropoxy)silyl)propyl)octadecan-1-aminium methane sulfonate]", "values": [{"measurement": "extent of hydrolysis", "setting": "[1]; 0.50% formulated with 2% propylene glycol, 1% HPMC, 0.1% poloxamer 407, 2% PEG, 94.40% water", "value": "complete hydrolysis"}, {"measurement": "time frame of complete hydrolysis", "setting": "[1]; diluted in water, 10 μg/mL", "value": "≤ 30", "unit": "min"}, {"measurement": "extent of hydrolysis", "setting": "[1]; diluted in water, 30-minute time point", "value": "complete hydrolysis"}, {"measurement": "extent of hydrolysis", "setting": "[1]; in propylene glycol diluted with acetonitrile, 10 μg/mL, 0.1% aqueous formic acid mobile phase, exposure less than 45 seconds", "value": "Partial hydrolysis"}]}, {"smiles": "CCCCCCCCCCCCCCCCCC[N+](C)(C)CCC[Si](OCC(CO)(CO)NCCS(=O)(=O)[O-])(OCC(CO)(CO)NCCS(=O)(=O)O)OCC(CO)(CO)NCCS(=O)(=O)O", "note": "[Compound XIX, 2-[[1-[[3-[Dimethyl(octadecyl)ammonio]propyl-[3-hydroxy-2-(hydroxymethyl)-2-(2-sulfoethylamino)propoxy]-[3-hydroxy-2-(hydroxymethyl)-2-(2-sulfoethylamino)propoxy]silyl]oxymethyl]-2-hydroxy-1-(hydroxymethyl)ethyl]amino]-ethanesulfonate]", "values": [{"measurement": "time a solution in water remains clear", "setting": "[2]; 1% solution in water", "value": "> 5", "unit": "months"}, {"measurement": "dissolution of the fine powder in water", "setting": "[2]; water, gentle heating", "value": "dissolves quickly in water with gentle heating"}, {"measurement": "precipitation on addition to the mixture", "setting": "[3]; HPMC with sodium hyaluronate", "value": "immediate precipitation"}, {"measurement": "precipitation on addition to the mixture", "setting": "[3]; Sodium Alginate as gelling agent, Poloxamer 407", "value": "immediate precipitation"}, {"measurement": "precipitation on addition to the mixture", "setting": "[3]; Xanthan gum as gelling agent, Poloxamer 407", "value": "immediate precipitation"}, {"measurement": "precipitation on addition to the mixture", "setting": "[3]; carbomer copolymer A as gelling agent, Poloxamer 407", "value": "immediate precipitation"}, {"measurement": "precipitation on addition to the mixture", "setting": "[3]; carbomer copolymer B as gelling agent, Poloxamer 407", "value": "immediate precipitation"}, {"measurement": "precipitation on addition to the mixture", "setting": "[3]; carboxymethylcellulose Sodium as gelling agent, Poloxamer 407", "value": "immediate precipitation"}, {"measurement": "precipitation on addition to the mixture", "setting": "[3]; carrageenan as gelling agent, Poloxamer 407", "value": "immediate precipitation"}]}, {"smiles": "CCCCCCCCCCCCCCCCCC[N+](C)(C)CCC[Si](OCC(C)O)(OCC(C)O)OCC(C)O", "note": "(stereo not shown) [Example 1, Dimethyl-octadecyl-[3-[tris(2-hydroxypropoxy)silyl]propyl]ammonium chloride]", "values": [{"measurement": "dissolution of the product in water", "setting": "[2]; water", "value": "dissolved readily in water"}]}, {"smiles": "CCCCCCCCCCCCCCCCCC[N+](C)(C)CCC[Si](OCC(C)(CO)C(=O)O)(OCC(C)(CO)C(=O)O)OCC(C)(CO)C(=O)O", "note": "(stereo not shown) [Example 4, Dimethyl-octadecyl-[3-tris(2-carboxy-3-hydroxy-2-methyl-propoxy)silylpropyl]ammonium chloride]", "values": [{"measurement": "dissolution of the product in water", "setting": "[2]; water", "value": "dissolved readily in water"}]}, {"smiles": "CCCCCCCCCCCCCCCCCC[N+](C)(C)CCC[Si](OCCCO)(OCCCO)OCCCO", "note": "[Example 5, Dimethyl-octadecyl-[3-[tris(3-hydroxypropoxy)silyl]propyl]ammonium chloride]", "values": [{"measurement": "dissolution of the product in water", "setting": "[2]; water", "value": "dissolved readily in water"}]}]}
